# Assays:
# BMDM [1] = experiment: extracellular (cell-free) mtDNA released by donor BMDM; format: cell-based, mouse; conditions: LPS-primed donor BMDM pretreated with compound, challenged with ATP or nigericin
# Procedure: Extracellular DNA of donor macrophages (1500,000 cells per group) was isolated using QIAamp Circulating Nucleic Acid Kit according to manufacturer's instructions and then eluted in 300 μL distilled H2O and quantified using spectrophotometric analysis at 260/280 nm with Nanodrop. […] Applicant used 5% of the prepared DNA for qPCR measurement of extracellular mtDNA and the remaining 95% were added to the recipient BMDM for analyzing the paracrine immunostimulatory effects.
# BMDM [2] = experiment: cytosolic Ox-mtDNA (8-OH-dG ELISA of cytosolic mtDNA) in BMDM; format: cell-based, mouse; conditions: LPS-primed BMDM, compound 10 μM 16 h, ATP 4 mM 1 h
# Procedure: (§1) Bone marrow cells were cultured in high glucose DMEM supplemented with 10% FBS, 20% L929-cell conditioned medium, and 100 U/mL penicillin-streptomycin for 7-10 days at 37° C. with 5% CO2 (Hornung et al., 2008).
# (§2) BMDM were stimulated as indicated. […] Briefly, BMDM were washed with PBS and harvested, 10% of which were saved for DNA extraction of whole cells. The remaining BMDM resuspended with pre-chilled mitochondrial extraction buffer 1 (220 mM mannitol, 70 mM sucrose, 20 mM HEPES-KOH, pH 7.5, 1 mM EDTA and 2 mg/mL bovine serum albumin) supplemented with a protease inhibitor cocktail and a phosphatase inhibitor cocktail were passed through a 25-G syringe (BD Biosciences) 20 times on ice. The homogenized cells were centrifuged at 1000×g for 15 minutes at 4° C. The supernatant was further centrifuged at 10,000×g for 10 minutes at 4° C. to pellet the mitochondria from supernatant cytosolic fraction. qPCR was performed after DNA purification with AllPrep DNA/RNA Mini Kit according to manufacturer's instructions, from both whole cell extracts and cytosolic fractions using mtDNA primers (D-loop, Cox1, non-NUMT), or after DNA purification from whole cell extracts using nuclear DNA primers (Tert, 18S, B2m). The Ct values obtained for mtDNA abundance in whole cell extracts served as normalization controls for the mtDNA values obtained from the cytosolic fractions. For the measurement of Ox-mtDNA, purified mtDNA was extracted from the cytosolic or mitochondrial fractions as indicated. The 8-OH-dG content was then quantified using 8-hydroxy 2-deoxyguanosine ELISA Kit, per manufacturer's instructions.
# BMDM [3] = experiment: cytosolic mtDNA (qPCR after cellular fractionation) in BMDM; format: cell-based, mouse; conditions: LPS-primed BMDM, compound 10 μM 16 h, ATP 4 mM 1 h
# Procedure: as §1, §2
# BMDM [4] = experiment: mtROS (MitoSOX) in BMDM; conditions: LPS-primed BMDM, compound pretreatment 16 h, ATP or nigericin
# Procedure: as §1
# Mitochondrial membrane potential was measured using TMRM according to manufacturer's instructions. Briefly, BMDM were primed or not with LPS for 4 h, and further stimulated with ATP or nigericin for 60 minutes. Cells were incubated with 200 nM TMRM for 30 minutes at 37° C. After washing twice, fluorescence intensity was determined per manufacturer's instructions using a FilterMax F5 multimode plate reader (Molecular Devices). Mitochondrial reactive oxygen species (mtROS) were measured using MitoSOX (Invitrogen) as described (Xian et al., 2021). BMDM treated as indicated were loaded with 4 μM MitoSOX for 20 minutes. After washing with PBS twice, cells were resuspended in PBS and counted. Equal numbers of cells from different treatment groups were then plated onto 96-well plates for fluorescence reading. To quantify [Ca^2+]m by 5 μM Rhod-2 or intracellular Ca^2+ intensity by 1 μM Fluo-4, BMDM treated as indicated were loaded with the respective dyes according to manufacturer's instructions for 30 minutes. After washing twice, fluorescence intensity was determined using a FilterMax F5 multimode plate reader (Molecular Devices). To analyze mPTP opening by calcein-quenching assay, BMDM treated as indicated were loaded with calcein at 2 μM and CoCl2 at 160 μM for 30 minutes at 37° C. according to manufacturer's instructions. After washing twice, fluorescence intensity was determined per with a FilterMax F5 multimode plate reader (Molecular Devices).
# BMDM [5] = experiment: 8-OH-dG content of mtDNA from mitochondria of BMDM; conditions: LPS-primed BMDM, FEN1-IN-4 pretreatment, ATP or nigericin
# Procedure: as §1, §2
# BMDM [6] = experiment: mtDNA fragmentation (agarose gel of cytosolic and mitochondrial DNA) in BMDM; format: cell-based, mouse; conditions: FEN1-IN-4 10 μM 16 h, LPS-primed, ATP
# Source text: To analyze DNA fragmentation and extrusion in mitochondrial and cytosolic fractions, BMDM (15000,000 cells per group) were stimulated as indicated and fractionalized as above. […] Cytosolic, mitochondrial or nuclear DNAs were purified using AllPrep DNA/RNA Mini Kit according to manufacturer's instructions and analyzed on 1% agarose gels stained with ethidium bromide.
# STING = STING Ser365 phosphorylation (puncta by immunofluorescence, immunoblot) in BMDM; conditions: CsA 1 μM, VBIT-4 10 μM or FEN1-IN-4 10 μM 16 hrs
# Procedure: as §1
# Whole cell lysates were prepared in RIPA buffer (25 mM Tris-HCl pH 7.6, 150 mM NaCl, 1% NP-40, 1% sodium deoxycholate, 0.1% SDS) containing a protease inhibitor cocktail and a phosphatase inhibitor cocktail. Protein concentrations were determined using BCA Protein Assay Kit. Equal amounts of protein were separated by SDS-PAGE and transferred onto PVDF membranes, blocked in 5% BSA in 1×TBST for 1 h and incubated with primary antibodies overnight. Secondary antibodies were added for 1 h and detection was performed using Clarity Western ECL Substrate.
# BMDM were fixed in 4% paraformaldehyde (PFA), permeabilized in 0.2% Triton X-100,and blocked in 1×PBS supplemented with 3% BSA. […] Nuclei were counterstained with DAPI.
# NLRP3 inflammasome [7] = experiment: alum-induced peritonitis in mice; format: in vivo, mouse
# Procedure: 8-12-week-old male C57BL/6 mice and WT or mt-Ogg1Tg mice were allocated randomly and i.p. injected with alum (1 mg dissolved in 0.2 mL sterile PBS) or PBS. Peritoneal lavage was collected 4 h post-injection to measure cytokine amounts by ELISA. […] Neutrophils (CD11b^+Ly6G^+F4/80^−) and monocytes (CD11b^+Ly6C^+Ly6G^−) present in peritoneal lavage fluid were quantified by flow cytometry. For blocking Fc-mediated interactions, mouse cells were pre-incubated with 0.5-1 μg of purified anti-mouse CD16/CD32 per 100 μL. Isolated cells were stained with labelled antibodies in PBS with 2% FCS and 2 mM EDTA or cell staining buffer (Biolegend). Dead cells were excluded based on staining with propidium iodide (PI). Absolute numbers of immune cell subtypes in the peritoneum were calculated by multiplying total peritoneal cell numbers by percentages of immune cell subtypes amongst total cells. Cells were analyzed on a Beckman Coulter Cyan ADP flow cytometer. Paired antibodies (capture and detection) and standard recombinant mouse IL-1β and TNF were used to determine mouse cytokine concentrations according to manufacturer's instructions.
# BMDM [8] = experiment: total mtDNA (LPS-stimulated mtDNA synthesis, qPCR) in BMDM; format: cell-based, mouse; conditions: compound 10 μM 16 h, before or after LPS priming
# Source text: Nuclear DNA encoding telomerase reverse transcriptase (Tert), 18S ribosomal RNA and β2 microglobulin (B2m) was used for normalization.
# NLRP3 inflammasome [9] = experiment: NLRP3 inflammasome activation (Casp1 p20 and mature IL-1β, IB and ELISA) in BMDM; format: cell-based, mouse; conditions: LPS-primed BMDM, compound pretreatment 16 h, challenged with NLRP3 activators
# Source text: Paired antibodies (capture and detection) and standard recombinant mouse IL-1β and TNF were used to determine mouse cytokine concentrations according to manufacturer's instructions.
# BMDM [10] = experiment: stimulation of naive recipient BMDM by cell-free mtDNA (cytokine and ISG mRNA, qPCR); format: cell-based, mouse; conditions: recipient BMDM incubated 24 h with DNA from compound-pretreated donor BMDM; cytokine and ISG mRNAs
# Procedure: RNA was extracted using AllPrep DNA/RNA Mini kit, and cDNA was synthesized using SuperScript™ VILO™ cDNA Synthesis Kit. mRNA expression was determined by QPCR in a CFX96 thermal cycler (Biorad) as described (Xian et al., 2021). Data are presented in arbitrary units and calculated by the 2^(−ΔΔCT) method. Primer sequences were obtained from the NIH qPrimerDepot (http://mouseprimerdepot.nci.nih.gov) and provided by Integrated DNA technologies.
# Extracellular DNA of donor macrophages (1500,000 cells per group) was isolated using QIAamp Circulating Nucleic Acid Kit according to manufacturer's instructions and then eluted in 300 μL distilled H2O and quantified using spectrophotometric analysis at 260/280 nm with Nanodrop. DNA amounts purified among the different treatment groups vary. The DNA amount secreted from LPS-primed donor BMDM is low, approximately at 0.1 μg. The amount of DNA released by LPS-primed donor BMDM challenged with ATP is about 1.3 μg, while the amount of DNA released by LPS-primed donor BMDM challenged with nigericin is around 2 μg. The amount of DNA secreted by LPS-primed donor BMDM challenged with MSU or alum is about 0.7 μg. Applicant used 5% of the prepared DNA for qPCR measurement of extracellular mtDNA and the remaining 95% were added to the recipient BMDM for analyzing the paracrine immunostimulatory effects.
# [11] = ccf-mtDNA and Fpg-sensitive Ox-mtDNA in peritoneal exudates of alum-challenged mice; format: in vivo, mouse; conditions: FEN1-IN-4 40 mg/kg, exudates 4 and 16 hrs post-challenge
# [12] = FEN1-IN-4 40 mg/kg 16 h prior to i.p. alum 1 mg, exudate 4 h later
# [13] = FEN1-IN-4 40 mg/kg 16 h prior to i.p. alum, 16 h
structure (smiles),measurement,setting,value
O=c1c2ccccc2n(CC2CC2)c(=O)n1O [FEN1-IN-4],cell-free mtDNA release,BMDM [1],inhibited
same,cytosolic Ox-mtDNA (release),BMDM [2],abrogated
same,cytosolic mtDNA release,BMDM [3],abrogated
same,mtROS production,BMDM [4],no effect
same,Ox-mtDNA generation (8-OH-dG in mitochondrial mtDNA),BMDM [5],no effect
same,mtDNA fragmentation,BMDM [6],abrogated
same,formation of Ser^365 phosphorylated STING puncta,"STING; LPS-primed BMDM, ATP or nigericin",diminished
same,ATP-induced STING Ser^365 phosphorylation (immunoblot) in Nlrp3−/− BMDM,"STING; LPS-primed Nlrp3−/− BMDM, ATP",completely blocked
same,alum-induced NLRP3 inflammasome-dependent IL-1β production in vivo (peritoneal IL-1β),NLRP3 inflammasome [7]; [12],inhibited
same,peritoneal TNF secretion in vivo,NLRP3 inflammasome [7]; [12],without an effect
same,monocyte infiltration (peritoneal),NLRP3 inflammasome [7]; [13],reduced
same,neutrophil infiltration (peritoneal),NLRP3 inflammasome [7]; [13],reduced
same,LPS-stimulated mtDNA synthesis (total mtDNA),BMDM [8],did not affect
same,NLRP3 inflammasome activation (Casp1 activation and mature IL-1β secretion),NLRP3 inflammasome [9],dose-dependent inhibition
same,immunostimulatory activity of DNA secreted by treated donor BMDM,BMDM [10],inhibited
same,ccf-mtDNA secretion into peritoneal exudates,[11],inhibited
same,Ox-mtDNA secretion into peritoneal exudates,[11]; Fpg-sensitive qPCR,inhibited

# From patent US20250064808A1, “METHODS FOR THE TREATMENT OF NLRP3 RELATED DISORDERS” (priority 2022, published 2025)
